Laboratory results from US20040009485A1, “Cellular arrays for the identification of altered gene expression” (priority 2002, published 2004).
Where “and” joins values, the source holds several entries; their conditions need not be identical. Identical values can stand only once.

Experiments:
Format in all cases: cell-based, E. coli
[1] = test system: LuxArray 1.0 luxCDABE gene fusions; experiment: LuxArray 1.0 solid phase identification of nalidixic acid responsive gene fusions; conditions: 5 μg/ml, duplicate spots; for Solid expt NA/LB, t = 2 hr / Solid expt NA/LB, t = 4 hr / Solid expt NA/LB, t = 6 hr / Solid expt NA/LB, t = 8 hr: normalized; for upregulation on LuxArray 1.0: 4 hours of nalidixic acid treatment
From the text: The genome-registered Lux-A luxCDABE gene fusion collection. (described in Example 1) provided a list of 4988 plasmid-borne gene fusions, each with boundary information relative to the E. coli genome and the orientation relative to the lux operon. An operably linked or a functional construct was defined as one consisting of a genomic fragment encompassing a promoter adjacent to the promoterless lux operon in an orientation that causes transcription initiated at the promoter to proceed into and through the lux operon. Therefore, to identify the functional subset of the collection, criteria were computationally applied to filter the list of clones first for functionality and second for redundancy. A list of definitions of documented and predicted operons (Thieffry et al. (1998) Bioinformatics 14:391-400) was used to define genomic coordinates of the operons as the translational start codon position of the first open reading frame (ORF) in the operon and the translational stop codon position of the last ORF in the operon. Additional information included the strand on which the operon is coded (direction of transcription), and gene names (common or “b” number). The lux gene fusions were filtered computationally using the following assumptions; (i) a functional transcriptional fusion would result from any genomic fragment starting greater than 50 base pairs upstream of the start codon of the first ORF and ending anywhere between the start codon of the first ORF in the operon and the stop codon of the last ORF in the operon, thereby eliminating the occurrence of a transcriptional stop signal in the construct between the promoter and the lux operon; and (ii) the promoter contained in the genomic fragment must face in the correct orientation relative to the lux operon (pictorially represented in FIG. 6). Finally, in cases when more then one clone fit the criteria for a single operon, only the one construct containing the genomic fragment representing the greatest amount of upstream sequence was retained thereby eliminating redundancy. The PERL code used and the resulting list of 689 selected gene fusions are found in Scheme 1 and Table 18 (following Example 7). These fusions represent 27% of the 2584 known and predicted transcriptional units in the E. coli genome. Individual cultures of strains containing the identified gene fusions were rearranged from the ninety original culture plates to create a set of sixteen 96-well microplates containing all the identified fusions, duplicated with side by side symmetry, including appropriately placed controls. These 16 plates represent were used to generate the cellular arrays for use in subsequent analyses.
The E. coli strains were grown overnight at 37° C. in […]) LB medium supplemented with 100 μg/ml ampicillin in a set of sixteen 96-well dishes. These cultures were designated “printing plates” and were used as the cell source to manufacture the arrays. Porous membranes (Biodyne B, Nunc) were sterilized with UV illumination for 10 min then placed in contact with pre-warmed of solid LB growth media in a culture dish (OmniTray, Nunc). Printing of 4×4 subarrays was accomplished using a BioMek 2000 (Beckman Coulter) equipped with a High Density Replication Tool (HDRT). […] After sterilization, the pins are air-dried prior to the next transfer. The E. coli strains in the LuxArray were printed onto an approximately 8×12 cm membrane in two sets of triplicates.
Arrays were printed from fresh overnight cultures onto membranes on plates containing LB media. Alter 6 hr of growth at 37° C. membranes were moved to pre-warmed plates containing either LB media or LB media supplemented with 5 μg/ml nalidixic acid then replaced at 37° C. to continue growing. Images were collected for each array every two hours from 0-8 hr after relocation using a cooled CCD camera (FluorChem 8000: f0.85 lens, 2 min exposure, AlphaInnotech). […]

[2] = test system: luxCDABE gene fusions in lexA+ host; experiment: Mitomycin C and nalidixic acid responses in lexA+ host; conditions: for NA Ratio, 2 hr 10 ug/ml: lexA+ host
Description: (§1) In addition, the effect of a lexAind mutation was tested to determine if any of these were part of the SOS regulon. The expectation is that SOS regulon member will be induced by both nalidixic acid and mitomycin C in a manner that is dependent on lexA function (Walker, G. C., (1996) Escherichia coli and Salmonella: Cellular and Molecular Biology ASM Press). […] This is consistent with the observation of upregulation of the b1728 mRNA transcript upon mitomycin C treatment in a LexA dependent fashion (Fernández de Henestrosa et al. (2000). Mol. Microbiol. 35:1560-1572). Likewise, two Gene fusions, those to oraA and yigN were identified is new members of the SOS regulon (Table 16). […] Negative, non-DNA damage responsive gene fusions were also included (Table 16).

[3] = test system: luxCDABE gene fusions in lexAind host; experiment: Mitomycin C and nalidixic acid responses in lexAind host; conditions: for NA Ratio, 2 hr 10 ug/ml: lexAind host
Description: as §1

[4] = 1pxA 1pxB rnhB dnaE fusion (lux-a.pk061.c3), listed as NA
[5] = b1728 fusion (lux-a.pk033.c5), listed as NA
[6] = b1936 fusion (lux-a.pk0019.g1), listed as NA
[7] = dinG ybiB fusion (lux-a.pk0024.f5), listed as NA
[8] = dinP fusion (lux-a.pk055.a3), listed as NA
[9] = fusion (lux-a.pk0015.d6), listed as NA
[10] = oraA fusion (lux-a.pk058.f5), listed as NA
[11] = uvrA fusion (lux-a.pk0001.b6), listed as NA
[12] = yaaF fusion (lux-a.pk031.e7), listed as NA
[13] = yfhJ fdx hscA yfhE fusion (lux-a.pk0019.g2), listed as NA
[14] = 1pxA 1pxB rnhB dnaE fusion (lux-a.pk061.c3)
[15] = dinG ybiB fusion (lux-a.pk0024.f5)
[16] = lacZ fusion (65.d4), negative control
[17] = yciG fusion (lux-a.pk006.b4), negative control

SMILES: CCn1cc(C(=O)O)c(=O)c2ccc(C)nc21 [Nalidixic acid, nalidixic acid]
- Solid expt NA/LB, t = 2 hr [1, 4]: 3.5 and 2.7
- Solid expt NA/LB, t = 4 hr [1, 4]: 3.1 and 3.5
- Solid expt NA/LB, t = 6 hr [1, 4]: 2.8 and 3.0
- Solid expt NA/LB, t = 8 hr [1, 4]: 1.7 and 1.9
- Solid expt NA/LB, t = 2 hr [1, 5]: 3.7 and 2.1
- Solid expt NA/LB, t = 4 hr [1, 5]: 4.3 and 3.1
- Solid expt NA/LB, t = 6 hr [1, 5]: 3.2 and 3.3
- Solid expt NA/LB, t = 8 hr [1, 5]: 2.6 and 2.5
- Solid expt NA/LB, t = 2 hr [1, 6]: 2.5 and 4.4
- Solid expt NA/LB, t = 4 hr [1, 6]: 7.7 and 8.2
- Solid expt NA/LB, t = 6 hr [1, 6]: 9.7 and 15.5
- Solid expt NA/LB, t = 8 hr [1, 6]: 7.1 and 10.2
- Solid expt NA/LB, t = 2 hr [1, 7]: 2.5 and 3.4
- Solid expt NA/LB, t = 4 hr [1, 7]: 3.7 and 4.2
- Solid expt NA/LB, t = 6 hr [1, 7]: 3.5 and 3.1
- Solid expt NA/LB, t = 8 hr [1, 7]: 2.9 and 2.6
- Solid expt NA/LB, t = 2 hr [1, 8]: 3.1 and 5.5
- Solid expt NA/LB, t = 6 hr [1, 8]: 4.2 and 8.1
- Solid expt NA/LB, t = 4 hr ([1]; frvR frvX frvB frvA fusion (lux-a.pk046.e6)): 2.3
- Solid expt NA/LB, t = 2 hr ([1]; frvR frvX frvB frvA fusion (lux-a.pk046.e6), listed as NA): 2.8 and 2.1
- Solid expt NA/LB, t = 2 hr [1, 9]: 2.3 and 2.2
- Solid expt NA/LB, t = 4 hr [1, 9]: 6.4 and 4.1
- Solid expt NA/LB, t = 6 hr [1, 9]: 2.7 and 1.9
- Solid expt NA/LB, t = 8 hr [1, 9]: 0.6 and 0.8
- Solid expt NA/LB, t = 2 hr [1, 10]: 5.1 and 4.7
- Solid expt NA/LB, t = 4 hr [1, 10]: 7.9 and 7.7
- Solid expt NA/LB, t = 6 hr [1, 10]: 5.9 and 5.6
- Solid expt NA/LB, t = 8 hr [1, 10]: 3.9 and 3.8
- upregulation on LuxArray 1.0 ([1]; ruvA fusion): 1.7 fold and 2.1 fold
- Solid expt NA/LB, t = 2 hr [1, 11]: 2.5 and 2.9
- Solid expt NA/LB, t = 4 hr [1, 11]: 2.3 and 2.4
- Solid expt NA/LB, t = 6 hr [1, 11]: 1.6 and 1.1
- Solid expt NA/LB, t = 8 hr [1, 11]: 1.0 and 0.6
- upregulation on LuxArray 1.0 ([1]; uvrD fusion): 1.6 fold and 1.9 fold
- Solid expt NA/LB, t = 2 hr [1, 12]: 2.1 and 2.0
- Solid expt NA/LB, t = 4 hr [1, 12]: 2.0 and 2.1
- Solid expt NA/LB, t = 6 hr [1, 12]: 1.3 and 1.8
- Solid expt NA/LB, t = 8 hr [1, 12]: 1.0 and 1.5
- Solid expt NA/LB, t = 2 hr ([1]; yfhJ fdx hscA yfhE fusion (lux-a.pk0019.g2)): 2.1
- Solid expt NA/LB, t = 4 hr [1, 13]: 2.0 and 2.2
- Solid expt NA/LB, t = 6 hr [1, 13]: 1.7 and 1.5
- Solid expt NA/LB, t = 8 hr [1, 13]: 1.4 and 1.3
- Solid expt NA/LB, t = 4 hr ([1]; yigN fusion (lux-a.pk046.f11), listed as NA): 2.5 and 4.3
- NA Ratio, 2 hr 10 ug/ml [2, 14]: 2.87
- NA Ratio, 2 hr 10 ug/ml ([2]; b1728 fusion (lux-a.pk033.c5)): 5.17
- NA Ratio, 2 hr 10 ug/ml ([2]; b1936 fusion (lux-a.pk0019.g1)): 3.25
- NA Ratio, 2 hr 10 ug/ml [2, 15]: 4.03
- NA Ratio, 2 hr 10 ug/ml ([2]; fusion (lux-a.pk0015.d6)): 3.22
- NA Ratio, 2 hr 10 ug/ml [2, 16]: 0.81
- induction of b1728 promoter-luxCDABE fusion ([2]; lexA+ host (FIG. 9)): clearly induced
- NA Ratio, 2 hr 10 ug/ml ([2]; oraA fusion (lux-a.pk058.f5)): 11.06
- NA Ratio, 2 hr 10 ug/ml ([2]; yaaF fusion (lux-a.pk031.e7)): 1.53
- NA Ratio, 2 hr 10 ug/ml [2, 17]: 0.32
- NA Ratio, 2 hr 10 ug/ml ([2]; yigN fusion (lux-a.pk046.f11)): 5.74
- NA Ratio, 2 hr 10 ug/ml [3, 14]: 2.39
- NA Ratio, 2 hr 10 ug/ml ([3]; b1728 fusion (lux-a.pk033.c5)): 0.40
- NA Ratio, 2 hr 10 ug/ml ([3]; b1936 fusion (lux-a.pk0019.g1)): 1.55
- NA Ratio, 2 hr 10 ug/ml [3, 15]: 0.97
- NA Ratio, 2 hr 10 ug/ml ([3]; fusion (lux-a.pk0015.d6)): 2.29
- NA Ratio, 2 hr 10 ug/ml [3, 16]: 1.05
- induction of b1728 promoter-luxCDABE fusion ([3]; lexAind host strain (FIG. 9)): not induced
- NA Ratio, 2 hr 10 ug/ml ([3]; oraA fusion (lux-a.pk058.f5)): 1.06
- NA Ratio, 2 hr 10 ug/ml ([3]; yaaF fusion (lux-a.pk031.e7)): 1.19
- NA Ratio, 2 hr 10 ug/ml [3, 17]: 0.67
- NA Ratio, 2 hr 10 ug/ml ([3]; yigN fusion (lux-a.pk046.f11)): 0.59
